Measured values: patent US8324172B2, “G protein coupled receptor agonists and antagonists and methods of activating and inhibiting G protein coupled receptors using the same” (Tufts Medical Center, Inc., priority 2000, dated 2012)
Where a chain is given by its changes, count along the chain named. Entries after “also recorded” stand apart in the source; their conditions may differ. Where a SMILES comes first, the peptide text is derived from it. Where no end group is shown, it is not given here. The star is where a group is joined. Palmitoyl = CCCCCCCCCCCCCCCC(=O)*

Key:
[1] = target: T1, cholecystokinin B (CCKB) (Homo sapiens, UniProt P32239); experiment: InsP formation in COS7 cells expressing CCKB; assay type: cell-based; details: relative to 300 nM CCK-8
T1 construct: expressed in transfected cells; host or cells: COS7, transient
T1 sequence (P32239 1-447): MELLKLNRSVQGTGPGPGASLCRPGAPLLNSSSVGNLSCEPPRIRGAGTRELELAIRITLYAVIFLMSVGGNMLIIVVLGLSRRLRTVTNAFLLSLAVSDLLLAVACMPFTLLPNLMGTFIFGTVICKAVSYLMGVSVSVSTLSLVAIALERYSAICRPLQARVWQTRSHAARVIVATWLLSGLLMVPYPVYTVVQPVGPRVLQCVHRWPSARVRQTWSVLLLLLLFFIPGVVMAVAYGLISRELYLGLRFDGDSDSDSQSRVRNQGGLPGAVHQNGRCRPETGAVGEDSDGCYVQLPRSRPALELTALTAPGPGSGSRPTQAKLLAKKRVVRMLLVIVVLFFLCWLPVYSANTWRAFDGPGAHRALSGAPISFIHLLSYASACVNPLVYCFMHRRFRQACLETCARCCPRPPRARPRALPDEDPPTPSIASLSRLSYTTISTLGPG

[2] = system: human platelets
[3] = system: platelets; experiment: Platelet intracellular Ca2+, agonist activity of peptides
[4] = target: T2, PAR1 (Homo sapiens, UniProt P25116); experiment: InsP formation (PLC-β) in Rat1 fibroblasts expressing human PAR1; assay type: cell-based
T2 construct: expressed in transfected cells
T2 sequence (P25116 22-425): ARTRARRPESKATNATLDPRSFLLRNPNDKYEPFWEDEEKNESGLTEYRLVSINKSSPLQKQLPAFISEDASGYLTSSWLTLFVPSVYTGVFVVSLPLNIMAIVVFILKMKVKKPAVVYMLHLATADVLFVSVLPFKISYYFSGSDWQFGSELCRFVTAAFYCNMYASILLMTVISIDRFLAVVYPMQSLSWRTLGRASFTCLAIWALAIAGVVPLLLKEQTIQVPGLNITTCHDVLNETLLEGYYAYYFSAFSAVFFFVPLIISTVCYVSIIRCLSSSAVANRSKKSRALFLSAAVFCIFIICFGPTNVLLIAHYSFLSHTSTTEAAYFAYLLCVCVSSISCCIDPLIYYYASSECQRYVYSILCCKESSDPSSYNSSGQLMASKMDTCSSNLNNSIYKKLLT

[5] = target: T2, PAR1; experiment: Inhibition of PAR1-dependent platelet Ca2+ signal; assay type: cell-based
Procedure: (§1) Platelet Ca2+ measurements were performed as in Example 1.
(§2) The integrated Ca^2+ response for the individual treatments are relative to the full Ca^2+ responses for each agonist (100%) recorded in the absence of P4pal-10 (top trace).

[6] = target: T3, PAR4 (Homo sapiens, UniProt Q96RI0); experiment: Inhibition of AYPGKF-induced human platelet aggregation; assay type: cell-based
T3 sequence (Q96RI0 18-385): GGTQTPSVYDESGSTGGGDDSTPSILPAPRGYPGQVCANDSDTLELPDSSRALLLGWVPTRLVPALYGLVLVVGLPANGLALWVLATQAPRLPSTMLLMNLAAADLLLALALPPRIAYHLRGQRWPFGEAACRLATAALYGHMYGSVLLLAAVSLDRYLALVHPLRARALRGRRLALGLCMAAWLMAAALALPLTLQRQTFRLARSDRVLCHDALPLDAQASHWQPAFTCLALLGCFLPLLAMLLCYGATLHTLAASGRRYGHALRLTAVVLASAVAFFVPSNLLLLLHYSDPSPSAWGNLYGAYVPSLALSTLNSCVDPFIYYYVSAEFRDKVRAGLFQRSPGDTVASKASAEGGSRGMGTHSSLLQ

[7] = target: T3, PAR4; experiment: Inhibition of PAR4-dependent platelet Ca2+ signal (AYPGKF); assay type: cell-based
Procedure: as §1, §2

[8] = target: T4, somatostatin receptor (SSTR2) (Rattus norvegicus, UniProt P30680); experiment: InsP formation in COS7 cells expressing SSTR2; assay type: cell-based; details: relative to full response to 1 μM AGCKNFFWKTFTSC
T4 construct: expressed in transfected cells; host or cells: COS7, transient
T4 sequence (P30680 whole entry): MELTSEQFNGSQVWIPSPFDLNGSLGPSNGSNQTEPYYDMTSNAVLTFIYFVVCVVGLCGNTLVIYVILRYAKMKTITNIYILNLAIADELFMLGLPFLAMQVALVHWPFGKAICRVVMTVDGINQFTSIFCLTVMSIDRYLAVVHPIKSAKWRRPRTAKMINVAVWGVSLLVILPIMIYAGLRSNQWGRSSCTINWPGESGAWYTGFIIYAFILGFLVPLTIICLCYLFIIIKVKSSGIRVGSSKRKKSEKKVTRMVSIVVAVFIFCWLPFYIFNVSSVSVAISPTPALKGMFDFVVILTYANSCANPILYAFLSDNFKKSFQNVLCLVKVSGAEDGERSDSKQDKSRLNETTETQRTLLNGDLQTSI

[9] = target: T5, S309P PAR1 (Homo sapiens, UniProt P25116, S309P); experiment: InsP formation in COS7 cells expressing S309P PAR1 mutant; assay type: cell-based; details: relative to wild type PAR1
T5 construct: expressed in transfected cells; host or cells: COS7, transient
T5 sequence (P25116 22-425 S309P): T2 sequence (P25116 22-425) with S288P

[10] = system: delta377 PAR1; experiment: InsP formation in COS7 cells expressing delta377 (C-tail deleted) PAR1 mutant; assay type: cell-based, human; details: relative to wild type PAR1
[11] = 5 μM pepducin, SFLLRN followed by AYPGKF
[12] = 1.2-5 μM pepducin, AYPGKF first, then SFLLRN

CCCCCCCCCCCCCCCC(=O)N[C@@H](CO)C(=O)NCC(=O)N[C@@H](CO)C(=O)N[C@@H](CCCNC(=N)N)C(=O)N1CCC[C@H]1C(=O)N[C@H](C(=O)N[C@@H](CCC(N)=O)C(=O)N[C@@H](C)C(=O)N[C@@H](CCCCN)C(=O)N[C@@H](CC(C)C)C(=O)N[C@@H](CC(C)C)C(=O)N[C@@H](C)C(=O)N[C@@H](CCCCN)C(=O)N[C@@H](CCCCN)C(=O)N[C@@H](CCCNC(=N)N)C(=O)N[C@H](C(=O)N[C@H](C(=O)N[C@@H](Cc1ccccc1)C(N)=O)C(C)C)C(C)C)[C@@H](C)O [Bpal-18F] (Palmitoyl-SGSRPTQAKLLAKKRVVF-NH2)
Agonist Efficacy [1]: 13 ± 2%

CCCCCCCCCCCCCCCC(=O)N[C@@H](CO)C(=O)NCC(=O)N[C@@H](CO)C(=O)N[C@@H](CCCNC(=N)N)C(=O)N1CCC[C@H]1C(=O)N[C@H](C(=O)N[C@@H](CCC(N)=O)C(=O)N[C@@H](C)C(=O)N[C@@H](CCCCN)C(=O)N[C@@H](CC(C)C)C(=O)N[C@@H](CC(C)C)C(=O)N[C@@H](C)C(=O)N[C@@H](CCCCN)C(=O)N[C@@H](CCCCN)C(=O)N[C@@H](CCCNC(=N)N)C(=O)N[C@H](C(=O)N[C@H](C(=O)N[C@@H](CCCNC(=N)N)C(N)=O)C(C)C)C(C)C)[C@@H](C)O [Bpal-18] (Palmitoyl-SGSRPTQAKLLAKKRVVR-NH2)
Agonist Efficacy [1]: 12 ± 3%

CCCCCCCCCCCCCCCC(=O)O [Palmitic acid, reference compound]
agonist activity in platelet aggregation [2]: has no effect | agonist activity, platelet intracellular Ca2+ [3]: has no effect

CCCCCCCCCCCCCCCC(=O)N[C@@H](CCCNC(=N)N)C(=O)N[C@@H](CS)C(=O)N[C@@H](CCC(=O)O)C(=O)N[C@@H](CO)C(=O)N[C@@H](CO)C(=O)N[C@@H](CO)C(=O)N[C@@H](C)C(=O)N[C@@H](CCC(=O)O)C(=O)N[C@@H](C)C(=O)N[C@@H](CC(N)=O)C(=O)N[C@@H](CCCNC(=N)N)C(=O)N[C@@H](CO)C(=O)N[C@@H](CCCCN)C(=O)N[C@@H](CCCCN)C(=O)N[C@@H](CCC(=O)O)C(=O)N[C@@H](CCCNC(=N)N)C(=O)N[C@@H](CCC(=O)O)C(=O)N[C@@H](CC(C)C)C(=O)N[C@@H](Cc1ccccc1)C(N)=O [Pepducin P1pal-19E] (Palmitoyl-RCESSSAEANRSKKERELF-NH2)
Agonist Efficacy [4]: 11 ± 1% | loss of agonist activity [4]: ~90% | IC50 ([4]; Antagonist IC50): > 50000 nM

CCCCCCCCCCCCCCCC(=O)N[C@@H](CCCNC(=N)N)C(=O)N[C@@H](CS)C(=O)N[C@@H](CC(C)C)C(=O)N[C@@H](CO)C(=O)N[C@@H](CO)C(=O)N[C@@H](CO)C(=O)N[C@@H](C)C(=O)N[C@H](C(=O)N[C@@H](C)C(=O)N[C@@H](CC(N)=O)C(=O)N[C@@H](CCC(N)=O)C(=O)N[C@@H](CO)C(=O)N[C@@H](CCC(N)=O)C(=O)N[C@@H](CCC(N)=O)C(=O)N[C@@H](CO)C(=O)N[C@@H](CCC(N)=O)C(=O)N[C@@H](C)C(=O)N[C@@H](CC(C)C)C(=O)N[C@@H](Cc1ccccc1)C(N)=O)C(C)C [Pepducin P1pal-19Q] (Palmitoyl-RCLSSSAVANQSQQSQALF-NH2)
Agonist Efficacy [4]: 46 ± 8% | loss in efficacy, stimulation of InsP [4]: 2 fold | loss in efficacy, platelet aggregation ([2]; relative to P1pal-19): 2 fold

CCCCCCCCCCCCCCCC(=O)N[C@@H](CO)C(=O)NCC(=O)N[C@@H](CCCNC(=N)N)C(=O)N[C@@H](CCCNC(=N)N)C(=O)N[C@@H](Cc1ccc(O)cc1)C(=O)NCC(=O)N[C@@H](Cc1c[nH]cn1)C(=O)N[C@@H](C)C(=O)N[C@@H](CC(C)C)C(=O)N[C@@H](CCCNC(=N)N)C(N)=O [Pepducin P4pal-10] (Palmitoyl-SGRRYGHALR-NH2)
inhibition of PAR1 Ca2+ response [5, 11]: 36% | attenuation of PAR1 Ca2+ signal [5, 12]: 17-67% | IC50 [6]: 500 to 1000 nM | inhibition of PAR4 Ca2+ response [7, 11]: 97% | attenuation of PAR4 Ca2+ response [7, 12]: 50-80%

CCCCCCCCCCCCCCCC(=O)N[C@@H](Cc1c[nH]cn1)C(=O)N[C@H](C(=O)N[C@@H](CC(C)C)C(=O)N[C@@H](C)C(=O)N[C@@H](C)C(=O)N[C@@H](CO)C(=O)NCC(=O)N[C@@H](CCCNC(=N)N)C(=O)N[C@@H](CCCNC(=N)N)C(=O)N[C@@H](Cc1ccc(O)cc1)C(=O)NCC(=O)N[C@@H](Cc1c[nH]cn1)C(=O)N[C@@H](C)C(=O)N[C@@H](CC(C)C)C(=O)N[C@@H](CCCNC(=N)N)C(N)=O)[C@@H](C)O [Pepducin P4pal-15] (Palmitoyl-HTLAASGRRYGHALR-NH2)
inhibition of PAR1-dependent Ca2+ response ([5]; SFLLRN (or thrombin) after peptide pre-treatment): without affecting SFLLRN | IC50 [6]: 600 nM | inhibition of PAR4-dependent platelet aggregation ([6]; AYPGKF): effective inhibitor of platelet aggregation | inhibition of PAR4-dependent Ca2+ response ([7]; 3 micromolar pepducin, 200 Micromolar AYPGKF): fully antagonize PAR4 signaling; also recorded: blocked AYPGKF | agonist activity, platelet intracellular Ca2+ [3]: had no agonist activity

CCCCCCCCCCCCCCCC(=O)N[C@@H](CCCCN)C(=O)N[C@H](C(=O)N[C@@H](CCCNC(=N)N)C(=O)N[C@@H](CO)C(=O)N[C@@H](CO)C(=O)NCC(=O)N[C@H](C(=O)N[C@@H](CCCNC(=N)N)C(=O)N[C@H](C(=O)NCC(=O)N[C@@H](CO)C(=O)N[C@@H](CO)C(=O)N[C@@H](CCCCN)C(=O)N[C@@H](CCCNC(=N)N)C(=O)N[C@@H](CCCCN)C(=O)N[C@@H](CCCCN)C(=O)N[C@@H](CO)C(=O)N[C@@H](CCC(=O)O)C(=O)N[C@@H](CCCCN)C(=O)N[C@@H](CCCCN)C(=O)N[C@H](C(=O)N[C@H](C(=O)N[C@@H](Cc1ccccc1)C(N)=O)[C@@H](C)O)C(C)C)C(C)C)[C@@H](C)CC)C(C)C [Pepducin S2pal-23F] (Palmitoyl-KVRSSGIRVGSSKRKKSEKKVTF-NH2)
Agonist Efficacy [8]: 15 ± 4%

FSAVFFFVPL1ISTVCYVSI1RCLSSSAVANRSKKSRALF (FSAVFFFVPLIISTVCYVSIIRCLSSSAVANRSKKSRALF) [Pepducin P1-i3-40]
agonist activity, platelet intracellular Ca2+ [3]: causes a rapid intracellular Ca^2+ transient | lag phase of Ca2+i transient [3]: < 5 s

INLKALAALAKKIL [mastoparan, reference compound]
stimulation of InsP production (agonist activity) [4]: did not stimulate InsP production

RSLSSSAVANRSKKSRALF [Pepducin P1-i3-19]
agonist activity, platelet intracellular Ca2+ [3]: causes little stimulation of Ca^2+ fluxes

SFLLRN
loss of efficacy on S309P mutant [9]: 3.3 fold | loss of potency on S309P mutant [9]: 28 fold | shift of potency on delta377 mutant [10]: ~30 fold

VCYVSIIRSLSSSAVANRSKKSRALF [Pepducin P1-i3-26]
agonist activity, platelet intracellular Ca2+ [3]: gives a minor, unregulated Ca^2+i response

VPLIISTVCYVSIIRCLSSSAVANRSKKSRALF [Pepducin P1-i3-33]
agonist activity, platelet intracellular Ca2+ [3]: has similar potency to the P1-i3-40 peptide

Y12pal-18: pepducin based on the i3-loop of P2Y12; peptide YVRTRGVGKVPRKKVNVF (SEQ ID NO:33) (also: palmitoyl lipid, position not given here) [Pepducin Y12pal-18]
agonist activity in platelet aggregation [2]: no agonist activity
